This note sets out measurements from ChEMBL document CHEMBL3390834, “Development of second generation epigenetic agents” (Medchemcomm, 2012).

Series [1] has as its target T1, Lysine-specific demethylase 4E (Homo sapiens, UniProt B2RXH2).
T1 sequence (B2RXH2 whole entry): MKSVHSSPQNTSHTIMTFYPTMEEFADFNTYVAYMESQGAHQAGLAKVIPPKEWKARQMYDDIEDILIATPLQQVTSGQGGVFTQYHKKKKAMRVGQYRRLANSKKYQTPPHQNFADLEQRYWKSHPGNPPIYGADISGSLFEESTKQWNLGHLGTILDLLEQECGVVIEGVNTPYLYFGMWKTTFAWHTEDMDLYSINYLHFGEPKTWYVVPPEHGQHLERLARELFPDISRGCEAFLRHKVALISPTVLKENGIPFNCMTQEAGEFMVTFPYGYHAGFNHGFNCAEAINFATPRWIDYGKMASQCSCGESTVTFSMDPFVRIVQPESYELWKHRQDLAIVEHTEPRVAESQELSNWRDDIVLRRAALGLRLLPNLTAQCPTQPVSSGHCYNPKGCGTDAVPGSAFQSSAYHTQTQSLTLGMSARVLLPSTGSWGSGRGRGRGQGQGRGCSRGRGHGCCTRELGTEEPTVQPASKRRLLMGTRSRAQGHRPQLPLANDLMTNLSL
Description: Inhibition of N-terminal His-6-tagged human JMJD2E (1 to 337 residues) expressed in Escherichia coli by MALDI-TOF/MS analysis

Series [2] deals with Histone acetyltransferase KAT2A (Homo sapiens, UniProt Q92830). Description: Inhibition of human GCN5.
In a further series the target is CREB-binding protein (Homo sapiens, UniProt Q92793). Description: Inhibition of CBP (unknown origin).
Series [3] concerns the target NAD-dependent protein deacetylase sirtuin-1 (Homo sapiens, UniProt Q96EB6). The series can be described thus: Inhibition of recombinant human GST-tagged SIRT-1 using ZMAL as substrate after 4 hrs by homogeneous fluorescent deacetylase assay.
In series [4] the target is T2, Histone-arginine methyltransferase CARM1 (Homo sapiens, UniProt Q86X55).
T2 sequence (Q86X55 whole entry): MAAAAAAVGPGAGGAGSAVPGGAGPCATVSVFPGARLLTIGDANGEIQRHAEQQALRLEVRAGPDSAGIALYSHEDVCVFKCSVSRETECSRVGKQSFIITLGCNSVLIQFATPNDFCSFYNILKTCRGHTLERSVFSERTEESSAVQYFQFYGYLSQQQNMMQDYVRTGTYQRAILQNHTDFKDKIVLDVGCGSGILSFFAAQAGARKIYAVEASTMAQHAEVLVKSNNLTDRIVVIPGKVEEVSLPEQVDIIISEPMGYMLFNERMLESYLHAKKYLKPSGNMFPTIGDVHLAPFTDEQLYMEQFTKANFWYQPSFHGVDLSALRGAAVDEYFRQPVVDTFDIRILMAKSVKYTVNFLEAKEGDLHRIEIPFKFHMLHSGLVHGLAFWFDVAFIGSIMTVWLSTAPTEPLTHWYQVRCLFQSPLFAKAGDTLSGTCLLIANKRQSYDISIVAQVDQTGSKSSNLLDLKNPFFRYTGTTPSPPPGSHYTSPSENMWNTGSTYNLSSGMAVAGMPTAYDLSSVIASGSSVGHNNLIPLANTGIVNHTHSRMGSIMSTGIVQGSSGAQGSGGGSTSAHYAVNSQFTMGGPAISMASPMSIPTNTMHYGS
Description: Inhibition of full-length GST-tagged CARM-1 (unknown origin) expressed in Spodoptera frugiperda cells using histone H3 and tritiated-SAM as substrate.

The species named for series [5] is Homo sapiens. Description: Selectivity ratio of IC50 for human CARM-1 to IC50 for human recombinant PRMT-1.
Series [6] is filed under the species Homo sapiens. The series can be described thus: Selectivity ratio of IC50 for SET7 (unknown origin) to IC50 for human recombinant PRMT-2.
Series [7] addresses Protein arginine N-methyltransferase 1 (Homo sapiens, UniProt Q99873). The series can be described thus: Inhibition of human recombinant PRMT-1 using Npl3p as substrate.
The target of series [8] is Lysine-specific demethylase 2A (Homo sapiens, UniProt Q9Y2K7). Description: Inhibition of FBXL11 (unknown origin) expressed in HEK293 cells. Type of series: cell-based.
In series [9] the target is T1, Lysine-specific demethylase 4E. Description: Binding affinity to JMJD2E (unknown origin).
Another series concerns the target Egl nine homolog 1 (Homo sapiens, UniProt Q9GZT9). Description: Inhibition of PHD-2 (unknown origin).
Series [10] deals with T3, Lysine-specific histone demethylase 1A (Homo sapiens, UniProt O60341). The series can be described thus: Inhibition of N-terminal His-6-tagged full length human LSD-1 expressed in Escherichia coli BL21 (DE3) using H3K4me2 peptide as substrate by Western blotting analysis.
Series [11] has as its target T4, Histone acetyltransferase p300 (Homo sapiens, UniProt Q09472). Description: Inhibition of recombinant p300 (unknown origin) expressed in baculovirus expression system using [3H]acetyl-CoA as substrate preincubated for 10 mins followed by substrate addition measured after 10 mins by liquid scintillation counting analysis.
Series [12] can be described thus: Half life in C57BL/6J mouse at 10 mg/kg, po. Also on record: dose 10 mg/kg, route oral. It is filed as ADME, organism-based. The following applies: in vivo.
The target of series [13] is T4, Histone acetyltransferase p300. Description: Inhibition of recombinant full length p300 (unknown origin) expressed in baculovirus infected insect Sf21 cells using [3H]acetyl-CoA as substrate.
For series [14] the target is unchanged. Description: Binding affinity to p300 (unknown origin) by ITC analysis.
In another series the target is Histone deacetylase. Description: Inhibition of HDAC isolated from human HeLa cell nuclear extracts using Fluor de Lys as substrate after 30 mins by fluorescence assay. It is filed as protein assay.
Series [15] concerns the target Histone-lysine N-methyltransferase SUV39H1 (Homo sapiens, UniProt O43463). Description: Inhibition of SUV39H1 (unknown origin) by DELFIA.
In series [16] the target is Histone-lysine N-methyltransferase EHMT2 (Homo sapiens, UniProt Q96KQ7).
Description: Inhibition of recombinant GST-tagged G9a (685 to 1000 amino acids) (unknown origin) expressed in Escherichia coli BL21 using biotinylated histone H3 peptide as substrate by DELFIA
The nature of series [17]: Inhibition of HAT isolated from human HeLa cell nuclear extracts using biotinylated histone H4 peptide as substrate after 8 mins.
In series [18] the target is Histone acetyltransferase KAT2B (Homo sapiens, UniProt Q92831). The series can be described thus: Inhibition of FLAG epitope-tagged recombinant human PCAF expressed in baculovirus infected insect Sf21 cells using [3H]acetyl-CoA as substrate preincubated for 10 mins followed by substrate addition measured after 10 mins by liquid scintillation counting analysis.
Histone acetyltransferase KAT2B, sequence (Q92831 whole entry): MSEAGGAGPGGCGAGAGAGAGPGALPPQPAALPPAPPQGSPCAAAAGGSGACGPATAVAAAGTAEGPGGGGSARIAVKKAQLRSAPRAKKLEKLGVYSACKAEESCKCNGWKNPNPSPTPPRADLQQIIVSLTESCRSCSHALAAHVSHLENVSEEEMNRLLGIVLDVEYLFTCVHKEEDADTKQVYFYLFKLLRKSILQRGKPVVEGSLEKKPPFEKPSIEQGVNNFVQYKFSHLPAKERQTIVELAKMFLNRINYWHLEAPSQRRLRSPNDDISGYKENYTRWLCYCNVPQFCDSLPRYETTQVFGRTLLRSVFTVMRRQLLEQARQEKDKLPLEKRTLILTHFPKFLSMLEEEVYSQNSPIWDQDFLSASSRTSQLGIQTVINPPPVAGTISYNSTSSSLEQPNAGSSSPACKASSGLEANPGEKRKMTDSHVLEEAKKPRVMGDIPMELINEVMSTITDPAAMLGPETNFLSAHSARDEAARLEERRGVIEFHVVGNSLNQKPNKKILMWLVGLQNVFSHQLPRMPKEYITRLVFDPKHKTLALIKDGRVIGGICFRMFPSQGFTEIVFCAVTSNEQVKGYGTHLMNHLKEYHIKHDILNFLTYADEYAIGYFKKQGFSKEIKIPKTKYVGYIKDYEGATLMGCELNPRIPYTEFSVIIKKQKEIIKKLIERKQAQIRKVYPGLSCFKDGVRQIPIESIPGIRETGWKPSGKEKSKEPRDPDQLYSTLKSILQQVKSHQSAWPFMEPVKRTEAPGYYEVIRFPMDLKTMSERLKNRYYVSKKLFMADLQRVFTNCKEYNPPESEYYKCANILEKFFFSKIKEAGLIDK
The target of series [19] is T4, Histone acetyltransferase p300. The series can be described thus: biochemical.
Description: Inhibition of His6-tagged recombinant full length p300 (unknown origin) expressed in baculovirus infected insect Sf21 cells using [3H]acetyl-CoA as substrate preincubated for 10 mins followed by substrate addition measured after 10 mins by liquid scintillation counting analysis
Series [20] is described as follows: Growth inhibition of human KYSE-150 cells after 48 hrs. The settings on record: KYSE-150, 48 h. Type of series: functional.
Series [21] concerns the target T3, Lysine-specific histone demethylase 1A. The series can be described thus: Inhibition of N-terminal His-6-tagged full length human LSD-1 expressed in Escherichia coli BL21 (DE3) using H3K4me2 peptide as substrate at 1 uM by Western blotting analysis relative to control.

Structures are written as SMILES. Bounds are passed on as bounds.

T4 sequence (Q09472 whole entry): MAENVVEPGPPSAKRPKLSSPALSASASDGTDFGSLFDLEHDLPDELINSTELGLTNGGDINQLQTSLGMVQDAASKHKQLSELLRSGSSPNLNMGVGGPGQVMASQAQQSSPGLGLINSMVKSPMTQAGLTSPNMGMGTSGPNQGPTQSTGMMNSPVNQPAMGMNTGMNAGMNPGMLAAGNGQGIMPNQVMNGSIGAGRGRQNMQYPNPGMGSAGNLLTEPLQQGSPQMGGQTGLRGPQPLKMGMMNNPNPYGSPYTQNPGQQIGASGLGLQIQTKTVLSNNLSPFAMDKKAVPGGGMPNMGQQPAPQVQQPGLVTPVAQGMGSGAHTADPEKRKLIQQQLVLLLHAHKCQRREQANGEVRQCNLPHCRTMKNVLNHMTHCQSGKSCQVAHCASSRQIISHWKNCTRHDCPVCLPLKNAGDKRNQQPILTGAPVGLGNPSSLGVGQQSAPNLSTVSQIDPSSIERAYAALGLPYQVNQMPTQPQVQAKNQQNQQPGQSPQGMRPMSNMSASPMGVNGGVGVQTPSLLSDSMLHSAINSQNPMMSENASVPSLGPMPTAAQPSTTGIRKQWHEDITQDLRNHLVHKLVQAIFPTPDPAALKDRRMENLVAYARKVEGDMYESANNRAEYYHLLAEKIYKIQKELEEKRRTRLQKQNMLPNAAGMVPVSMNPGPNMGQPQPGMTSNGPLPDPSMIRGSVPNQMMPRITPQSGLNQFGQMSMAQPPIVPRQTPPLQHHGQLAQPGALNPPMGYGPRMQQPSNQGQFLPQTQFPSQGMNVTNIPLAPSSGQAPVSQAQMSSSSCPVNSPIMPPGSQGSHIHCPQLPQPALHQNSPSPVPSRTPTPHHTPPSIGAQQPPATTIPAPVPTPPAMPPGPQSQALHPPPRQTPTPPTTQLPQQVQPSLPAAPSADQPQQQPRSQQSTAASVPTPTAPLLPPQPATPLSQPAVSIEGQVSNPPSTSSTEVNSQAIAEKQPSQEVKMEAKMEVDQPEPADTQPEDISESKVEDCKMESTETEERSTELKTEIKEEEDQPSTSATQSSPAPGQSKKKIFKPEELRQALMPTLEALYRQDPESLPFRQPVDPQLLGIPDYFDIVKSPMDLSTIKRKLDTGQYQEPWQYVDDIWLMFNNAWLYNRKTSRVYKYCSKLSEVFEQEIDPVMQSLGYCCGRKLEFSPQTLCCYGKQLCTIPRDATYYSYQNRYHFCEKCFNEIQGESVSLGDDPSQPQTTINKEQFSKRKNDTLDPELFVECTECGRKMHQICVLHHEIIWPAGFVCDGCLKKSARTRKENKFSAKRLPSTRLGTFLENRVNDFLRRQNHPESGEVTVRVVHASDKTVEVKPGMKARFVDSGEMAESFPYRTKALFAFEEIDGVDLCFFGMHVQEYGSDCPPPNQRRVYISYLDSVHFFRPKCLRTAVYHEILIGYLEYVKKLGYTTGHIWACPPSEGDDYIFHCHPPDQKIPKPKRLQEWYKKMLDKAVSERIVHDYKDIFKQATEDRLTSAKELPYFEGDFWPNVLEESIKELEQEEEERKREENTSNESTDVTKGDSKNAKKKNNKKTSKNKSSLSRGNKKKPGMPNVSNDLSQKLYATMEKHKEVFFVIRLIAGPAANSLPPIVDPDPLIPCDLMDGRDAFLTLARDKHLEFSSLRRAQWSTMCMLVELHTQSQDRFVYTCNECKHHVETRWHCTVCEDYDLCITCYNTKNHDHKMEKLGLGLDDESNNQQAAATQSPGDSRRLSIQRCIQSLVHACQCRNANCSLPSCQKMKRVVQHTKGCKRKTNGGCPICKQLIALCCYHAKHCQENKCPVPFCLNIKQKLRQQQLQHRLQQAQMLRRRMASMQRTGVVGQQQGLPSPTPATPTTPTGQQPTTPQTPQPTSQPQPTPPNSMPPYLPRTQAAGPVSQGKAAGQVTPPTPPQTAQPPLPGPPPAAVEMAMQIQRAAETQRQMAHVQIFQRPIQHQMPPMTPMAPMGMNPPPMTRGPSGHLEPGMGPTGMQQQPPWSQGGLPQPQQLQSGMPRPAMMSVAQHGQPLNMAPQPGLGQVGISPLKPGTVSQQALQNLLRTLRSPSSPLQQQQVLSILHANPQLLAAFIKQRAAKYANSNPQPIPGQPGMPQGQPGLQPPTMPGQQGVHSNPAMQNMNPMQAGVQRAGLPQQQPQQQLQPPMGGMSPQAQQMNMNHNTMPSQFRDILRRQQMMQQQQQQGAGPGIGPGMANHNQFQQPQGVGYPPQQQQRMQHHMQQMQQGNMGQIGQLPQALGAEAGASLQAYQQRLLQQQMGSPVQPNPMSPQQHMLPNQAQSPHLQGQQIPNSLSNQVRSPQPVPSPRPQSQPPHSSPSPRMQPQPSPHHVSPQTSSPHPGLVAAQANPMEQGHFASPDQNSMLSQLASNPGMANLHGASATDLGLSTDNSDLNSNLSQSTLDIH
NAD-dependent protein deacetylase sirtuin-1, sequence (Q96EB6 whole entry): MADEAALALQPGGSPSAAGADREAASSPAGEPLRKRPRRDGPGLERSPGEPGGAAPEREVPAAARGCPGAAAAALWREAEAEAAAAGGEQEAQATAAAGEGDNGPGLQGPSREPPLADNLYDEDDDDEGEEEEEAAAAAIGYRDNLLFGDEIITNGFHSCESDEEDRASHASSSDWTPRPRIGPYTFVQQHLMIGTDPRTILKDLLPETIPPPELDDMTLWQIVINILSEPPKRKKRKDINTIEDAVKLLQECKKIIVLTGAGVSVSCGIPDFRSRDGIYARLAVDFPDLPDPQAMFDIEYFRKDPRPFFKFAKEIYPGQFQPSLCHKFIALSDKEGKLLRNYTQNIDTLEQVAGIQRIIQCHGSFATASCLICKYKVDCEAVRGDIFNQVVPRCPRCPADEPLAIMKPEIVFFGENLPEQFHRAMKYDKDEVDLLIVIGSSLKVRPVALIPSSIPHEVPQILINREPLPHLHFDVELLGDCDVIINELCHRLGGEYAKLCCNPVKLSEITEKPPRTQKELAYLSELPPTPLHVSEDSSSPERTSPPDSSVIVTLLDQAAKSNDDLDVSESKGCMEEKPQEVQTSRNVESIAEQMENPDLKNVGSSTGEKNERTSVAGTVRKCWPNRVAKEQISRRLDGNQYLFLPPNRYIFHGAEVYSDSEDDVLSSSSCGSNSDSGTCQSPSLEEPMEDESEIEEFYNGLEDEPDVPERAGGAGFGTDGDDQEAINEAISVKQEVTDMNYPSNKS
Protein arginine N-methyltransferase 1, sequence (Q99873 whole entry): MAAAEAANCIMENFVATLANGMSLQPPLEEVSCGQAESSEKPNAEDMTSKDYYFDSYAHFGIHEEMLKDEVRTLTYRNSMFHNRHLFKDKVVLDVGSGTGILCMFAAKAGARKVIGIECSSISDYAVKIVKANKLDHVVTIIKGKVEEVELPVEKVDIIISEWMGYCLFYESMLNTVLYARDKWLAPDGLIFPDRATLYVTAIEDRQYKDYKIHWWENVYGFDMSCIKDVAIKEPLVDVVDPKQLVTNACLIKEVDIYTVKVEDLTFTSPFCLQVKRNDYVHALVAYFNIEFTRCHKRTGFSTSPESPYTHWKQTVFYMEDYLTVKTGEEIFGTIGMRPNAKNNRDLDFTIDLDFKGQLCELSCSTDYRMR
Histone-lysine N-methyltransferase SUV39H1, sequence (O43463 whole entry): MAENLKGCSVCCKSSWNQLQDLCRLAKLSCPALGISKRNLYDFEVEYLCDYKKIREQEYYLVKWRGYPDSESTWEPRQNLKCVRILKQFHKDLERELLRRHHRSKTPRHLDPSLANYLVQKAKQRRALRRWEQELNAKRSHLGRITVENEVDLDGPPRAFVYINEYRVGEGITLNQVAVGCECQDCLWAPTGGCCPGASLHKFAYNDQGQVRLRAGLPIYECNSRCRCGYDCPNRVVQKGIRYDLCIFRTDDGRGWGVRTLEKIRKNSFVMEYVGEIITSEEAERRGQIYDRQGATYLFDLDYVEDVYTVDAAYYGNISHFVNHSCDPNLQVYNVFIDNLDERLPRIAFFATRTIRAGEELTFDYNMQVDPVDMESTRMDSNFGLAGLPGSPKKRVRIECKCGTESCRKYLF

`C[C@](N)(Cc1ccc(O)c(O)c1)C(=O)O` [METHYLDOPA] showed an IC50 in series [1] of 3 µM.

For `C=C1C(=O)O[C@@H](CCC)[C@@H]1C(=O)O`, the IC50 in series [2] was found to be 100 µM; on CREB-binding protein it was 500 µM. On to `O=C1NC(=S)NC(=O)C1=Cc1cc2ccccc2[nH]1`, for which the concentration for half-maximal inhibition (IC50) in series [3] was 5.9 µM. For `NCCc1ccc(O)c(O)c1` [DOPAMINE], in series [1], the IC50 came to 3 µM. In series [4], `C[C@H](N)C(=O)NCc1cccc(-n2nc(C(F)(F)F)cc2-c2nnc(-c3cccc4[nH]ccc34)o2)c1` registered an IC50 of 0.027 µM.

For `O=C(/C=C/c1ccc(O)c(Br)c1)/C=C/c1cc(Br)c(O)c(Br)c1`, the values for the Ratio IC50 in the series filed under Homo sapiens [5] and in the series filed under Homo sapiens [6] were 30 and 10, respectively. In [7], the IC50 came to 3 µM. With `[N-]=[N+]=Nc1ccc(C(=O)N[C@@H](CCCCNC(=O)COCCOCCNC(=O)CCCC[C@@H]2SC[C@@H]3NC(=O)N[C@@H]32)C(=O)NCCCNC(=O)c2ccc(O)c3ncccc23)cc1`, the results for the IC50 (in series [8]; against Egl nine homolog 1) were 9.1 µM and 41.8 µM, respectively. In addition, the Kd in [9] came to 58.4 µM.

Compound `CCNCCCCCCCCCCCCCCCCNC/C=C/CNCCCCCCCCCCCCCCCCNCC` showed an IC50 in series [10] of 5 µM. `COc1cc(C(=O)C2=C3OC(C)(C)[C@@H](CC=C(C)C)C[C@@]34C[C@@H](CC=C(C)C)C(C)(C)[C@@](CC=C(C)C)(C2=O)C4=O)ccc1O`: in [11], the IC50 stood at 5 µM.

For `NC(=O)C1CCCc2c1[nH]c1ccc(Cl)cc21` (stereo not given), the half-life in series [12] is 2 h. In the case of `CC1=CC(=O)c2c(O)cccc2C1=O` [PLUMBAGIN], the IC50 in series [13] stood at 2 µM. Also, the Kd in series [14] came to 2 µM. In turn, `O=C(CSSCC(=O)c1ccc(Br)cc1)c1ccc(Br)cc1` came in with an IC50 at Histone deacetylase of 0.135 µM. In the case of `COc1ccc(C(=O)Oc2ccc(CCn3c(NC(=O)c4ccc(C(F)(F)F)cc4)nc4cc(C(=O)O)ccc43)cc2)cc1`, the concentration for half-maximal inhibition (IC50) in [15] was found to be 1.1 µM; in [16], 4.7 µM. In series [17], `CCCCCCCCCCCCCC(Oc1cccc(OCc2ccccc2)c1)C(=O)O` (stereo not given) gave an IC50 of 6 µM. Take `CCCCCCCCCCCCCCCc1cccc(O)c1C(=O)O` [ANACARDIC ACID]: the figures for the IC50 in series [18] and in [19] were 5 µM and 8.5 µM, respectively.

For `COC(=O)/C=C/C(=O)N(O)CCCCNCc1ccc(COC(=O)Nc2cccc3ccccc23)cc1`, the GI50 in series [20] turned out to be 5.1 µM. Consider `N=C(NCCCNCCCCCCCNCCCNC(=N)NC(=N)NCCC(c1ccccc1)c1ccccc1)NC(=N)NCCC(c1ccccc1)c1ccccc1`, for which, in series [21], the inhibition is more than 50%.
